Measured values: ChEMBL document CHEMBL6083206, “SLL-1A-16 suppresses proliferation and induces autophagy in non-small-cell lung cancer cells via the AKT/mTOR signaling pathway” (RSC Med Chem, 2024)
pIC50: −log10 of the molar value. The source made the active and inactive calls. The calls are words filed in the database; no cut-off is given here.

Experiments:
NCI-H460 [1] = assay: Antiproliferative activity against human NCI-H460 cells assessed as reduction in cell viability incubated for 48 hrs by CCK8 assay; type: functional, cell-based; conditions: NCI-H460, 48 h
A549 [2] = assay: Inhibition of colony formation in human A549 cells at 10 to 30 uM incubated for 24 hrs by giemsa staining based analysis; type: functional, cell-based; conditions: dose 10-30 µM
NCI-H460 [3] = assay: Cell cycle arrest in human NCI-H460 cells assessed as accumulation of cells at G1-S phase at 10 to 30 uM incubated for 24 hrs by PI staining based flow cytometric analysis; type: functional; conditions: dose 10-30 µM
A549 [4] = assay: Cell cycle arrest in human A549 cells assessed as downregulation of cyclin D1 expression at 10 to 30 uM by Western blot analysis; type: functional, cell-based; conditions: dose 10-30 µM
A549 [5] = assay: Induction of apoptosis in human A549 cells assessed as viable cells at 10 uM incubated for 24 hrs by Annexin V-FITC/PI staining based flow cytometric analysis (reference value: 96.29 %); type: functional; conditions: read-out: Activity
A549 [6] = assay: Induction of apoptosis in human A549 cells assessed as early apoptotic cells at 10 uM incubated for 24 hrs by Annexin V-FITC/PI staining based flow cytometric analysis (reference value: 0.44 %); type: functional
A549 [7] = assay: Induction of apoptosis in human A549 cells assessed as necrotic cells at 10 uM incubated for 24 hrs by Annexin V-FITC/PI staining based flow cytometric analysis (reference value: 0.97 %); type: functional
A549 [8] = assay: Induction of apoptosis in human A549 cells assessed as viable cells at 30 uM incubated for 24 hrs by Annexin V-FITC/PI staining based flow cytometric analysis (reference value: 96.29 %); type: functional; conditions: read-out: Activity
A549 [9] = assay: Induction of apoptosis in human A549 cells assessed as late apoptotic cells at 30 uM incubated for 24 hrs by Annexin V-FITC/PI staining based flow cytometric analysis (reference value: 2.29 %); type: functional
NCI-H460 [10] = assay: Induction of apoptosis in human NCI-H460 cells assessed as viable cells at 10 uM incubated for 24 hrs by Annexin V-FITC/PI staining based flow cytometric analysis (reference value: 91.95 %); type: functional; conditions: read-out: Activity
NCI-H460 [11] = assay: Induction of apoptosis in human NCI-H460 cells assessed as early apoptotic cells at 10 uM incubated for 24 hrs by Annexin V-FITC/PI staining based flow cytometric analysis (reference value: 3.22 %); type: functional
NCI-H460 [12] = assay: Induction of apoptosis in human NCI-H460 cells assessed as late apoptotic cells at 10 uM incubated for 24 hrs by Annexin V-FITC/PI staining based flow cytometric analysis (reference value: 4.15 %); type: functional
A549 [13] = assay: Induction of apoptosis in human A549 cells assessed as upregulation of Bax expression at 10 to 30 uM by Western blot analysis; type: functional, cell-based; conditions: dose 10-30 µM
A549 [14] = assay: Induction of apoptosis in human A549 cells assessed as upregulation of cleaved caspase 3 expression at 10 to 30 uM by Western blot analysis; type: functional, cell-based; conditions: dose 10-30 µM
NCI-H460 [15] = assay: Induction of apoptosis in human NCI-H460 cells assessed as upregulation of Bax expression at 10 to 30 uM by Western blot analysis; type: functional, cell-based; conditions: dose 10-30 µM
NCI-H460 [16] = assay: Induction of apoptosis in human NCI-H460 cells assessed as decrease in Bcl2 expression at 10 to 30 uM by Western blot analysis; type: functional, cell-based; conditions: dose 10-30 µM
A549 [17] = assay: Induction of autophagy in human A549 cells assessed as increase in fluorescence intensity of anti-LC3 incubated for 48 hrs by immunofluorescence staining based analysis; type: functional, cell-based; conditions: dose 10-30 µM
A549 [18] = assay: Induction of autophagy in human A549 cells assessed as increase in LC3-II expression at 10 to 30 uM incubated for 24 hrs by Western blot analysis; type: functional, cell-based; conditions: dose 10-30 µM
A549 [19] = assay: Induction of autophagy in human A549 cells assessed as increase in Atg5 expression at 10 to 30 uM incubated for 24 hrs by Western blot analysis; type: functional, cell-based; conditions: dose 10-30 µM
NCI-H460 [20] = assay: Induction of autophagy in human NCI-H460 cells assessed as increase in Atg5 expression at 10 to 30 uM incubated for 24 hrs by Western blot analysis; type: functional, cell-based; conditions: dose 10-30 µM
A549 [21] = assay: Inhibition of Akt/mTOR signalling pathway in human A549 cells assessed as decrease in phosphorylated 4EBP1 expression by Western blot analysis; type: cell-based; conditions: dose 10-30 µM
A549 [22] = assay: Inhibition of Akt/mTOR signalling pathway in human A549 cells assessed as decrease in phosphorylated PRAS40 expression by Western blot analysis; type: cell-based; conditions: dose 10-30 µM
NCI-H460 [23] = assay: Inhibition of Akt/mTOR signalling pathway in human NCI-H460 cells assessed as decrease in phosphorylated Akt expression by Western blot analysis; type: cell-based; conditions: dose 10-30 µM
NCI-H460 [24] = assay: Inhibition of Akt/mTOR signalling pathway in human NCI-H460 cells assessed as decrease in phosphorylated P70 S6k expression by Western blot analysis; type: cell-based; conditions: dose 10-30 µM
NCI-H460 [25] = assay: Inhibition of Akt/mTOR signalling pathway in human NCI-H460 cells assessed as decrease in phosphorylated 4EBP1 expression by Western blot analysis; type: cell-based; conditions: dose 10-30 µM
NCI-H460 [26] = assay: Inhibition of Akt/mTOR signalling pathway in human NCI-H460 cells assessed as decrease in mTOR expression by Western blot analysis; type: cell-based; conditions: dose 10-30 µM
NCI-H460 [27] = assay: Inhibition of Akt/mTOR signaling pathway in human NCI-H460 cells assessed as decrease in mTOR expression in presence of temsirolimus by Western blot analysis; type: cell-based
NCI-H460 [28] = assay: Inhibition of Akt/mTOR signaling pathway in human NCI-H460 cells assessed as decrease in phosphorylated PRAS40 expression in presence of temsirolimus by Western blot analysis; type: cell-based
A549 [29] = assay: Antiproliferative activity against human A549 cells assessed as inhibition of cell proliferation in presence of temsirolimus by CCK8 assay; type: functional, cell-based
[30] = test system: Gefitinib-resistant A549/G cell; assay: Inhibition of Akt/mTOR signaling pathway in human Gefitinib-resistant A549/G cell assessed as decrease in mTOR expression in presence of gefitinib by Western blot analysis; type: cell-based
[31] = test system: Gefitinib-resistant A549/G cell; assay: Inhibition of Akt/mTOR signaling pathway in human Gefitinib-resistant A549/G cell assessed as decrease in phosphorylated […] in presence of gefitinib by Western blot analysis; type: cell-based
[32] = test system: Gefitinib-resistant A549/G cell; assay: Antiproliferative activity against human Gefitinib-resistant A549/G cell assessed as inhibition of cell proliferation in presence of gefitinib; type: functional, cell-based
[33] = Toxicity in Balb/c nude mouse xenografted with human A549 cells assessed as reduction in body weight at 7.5 to 15 mg/kg, ip administered for 14 days; type: organism-based; conditions: in vivo, 336 h, dose 7.5-15 mg/kg, time 14 day
NCI-H460 [34] = assay: Induction of apoptosis in human NCI-H460 cells assessed as viable cells at 30 uM incubated for 24 hrs by Annexin V-FITC/PI staining based flow cytometric analysis (reference value: 91.95 %); type: functional; conditions: read-out: Activity
NCI-H460 [35] = assay: Induction of apoptosis in human NCI-H460 cells assessed as late apoptotic cells at 30 uM incubated for 24 hrs by Annexin V-FITC/PI staining based flow cytometric analysis (reference value: 4.15 %); type: functional
NCI-H460 [36] = assay: Induction of apoptosis in human NCI-H460 cells assessed as necrotic cells at 30 uM incubated for 24 hrs by Annexin V-FITC/PI staining based flow cytometric analysis (reference value: 0.68 %); type: functional

With `N#C[Se]CCCNC(=O)c1cccnc1` the pIC50 (NCI-H460 [1]) was 4.76, the inhibition (A549 [2]) was “Active” and the Activity (NCI-H460 [3]) was “Active”. The Activity (A549 [4]) was “Active; G1 Phase Cell Cycle Arrest Observed”, the viability at 10 µM (A549 [5]) was 84.8% and the Activity (A549 [6]) was 3.66%. For the same compound, the Activity (A549 [7]) was 3.03%, the viability at 30 µM (A549 [8]) was 75.9% and the Activity (A549 [9]) was 14.41%. For the same compound, the viability at 10 µM (NCI-H460 [10]) was 81.5%, the Activity (NCI-H460 [11]) was 5.81% and the Activity (NCI-H460 [12]) was 8.98%. For the same compound, the Activity (A549 [13]) was “Active”, the Activity (A549 [14]) was “Active” and the Activity (NCI-H460 [15]) was “Active”. The Activity (NCI-H460 [16]) was “Active”, the Activity (A549 [17]) was “Dose-dependent-effect” and the Activity (A549 [18]) was “Active”. For the same compound, the Activity (A549 [19]) was “Active”, the Activity (NCI-H460 [20]) was “Active” and the inhibition (A549 [21]) was “Dose-dependent-effect; Inhibitory Ability Of Compound Is Comparable To Temsirolimus”. The inhibition (A549 [22]) was “Dose-dependent-effect; Inhibitory Ability Of Compound Is Comparable To Temsirolimus”, the inhibition (NCI-H460 [23]) was “Dose-dependent-effect; Inhibitory Ability Of Compound Is Comparable To Temsirolimus” and the inhibition (NCI-H460 [24]) was “Dose-dependent-effect; Inhibitory Ability Of Compound Is Comparable To Temsirolimus”. The inhibition (NCI-H460 [25]) was “Dose-dependent-effect; Inhibitory Ability Of Compound Is Comparable To Temsirolimus”, the inhibition (NCI-H460 [26]) was “Dose-dependent-effect; Inhibitory Ability Of Compound Is Comparable To Temsirolimus” and the inhibition (NCI-H460 [27]) was “Active”. For the same compound, the inhibition (NCI-H460 [28]) was “Active”, the Activity (A549 [29]) was “Active” and the inhibition [30] was “Active”. The inhibition [31] was “Active”, the Activity [32] was “Active” and the Activity [33] was “Non-toxic”. For the same compound, the viability at 30 µM (NCI-H460 [34]) was 74.7%, the Activity (NCI-H460 [35]) was 13.81% and the Activity (NCI-H460 [36]) was 5.22%.
